Experimental data published in US5869486A, “Fused pyrimidines and pyriazines as pharmaceutical compounds” (Ono Pharmaceutical Co., Ltd., priority 1995, dated 1999).

Tested on: TXA2 synthetase
Assay: Inhibitory effect on TXA2 synthetase (TXB2 synthesis in A23187-stimulated whole blood)
Format: cell-based, Male Wistar rats
Settings: at 10 μM; rat heparinized whole blood, Ca ionophore A23187, TXB2 by EIA; CH3SO3H salt
Procedure: Male Wistar rats were starved overnight. Five hundreds microliter of heparinized (10 U/mL) whole blood was collected from abdominal aorta using polyethylene syringe (needle: 22 or 26 G). The blood freshly drawn from animal was preincubated with 5 μL of test compound at 37° C. Five minutes later, 2.5 μL of 6 mM of Ca ionophore A23187 (final concentration of 30 μM) was added into tube, and incubation mixture was further incubated for 15 min. The reaction was terminated by centrifugation of tubes at 12,000 rpm for 2 min. TXB2 content in the supernatant was determined by EIA as follows.
One milliliter of 0.5M glycine-HCl buffer (pH 3.2) was added to 100 μL of sample. The samples were mixed well and centrifuged at 1,700 G for 10 min. at 4° C. The extracted supernatant was applied to a SEP-PAK (registered Trade Mark) C18 cartridge (Waters Assoc.). After washing with 10 mL of distilled water followed by 10 mL each of 15% ethanol and petroleum ether, the sample was eluted with 3 mL of ethyl acetate. The ethyl acetate fraction was evaporated to dryness under gentle N2 stream and the residue was dissolved in EIA buffer (final volume of 1 mL) following the addition of 300 μL of 0.01M NaHCO3 --NaOH buffer (pH 10.0). EIA for TXB2 was carried out according to a legend attached to the kit (Chyman Chemical Co., Inc.). Overall recovery of TXB2 in this extraction procedure was 90%. […]

SMILES | Inhibitory activity on TXA2 synthetase [%]
c1cn(-c2nc3c(c(NCc4ccc5c(c4)OCO5)n2)CSCC3)cn1 [Example 2(7)] | 63

Target: cGMP-PDE (Homo sapiens, UniProt O76074)
Assay: Inhibitory effect on cGMP-PDE
Format: biochemical
Settings: PDE IC isolated from human platelets; substrate 3H-cGMP; tested as 2HCl salt (2, 2(3)), CH3SO3H salt (2(5), 2(7), 5, 6(1)), free base (4, 7, 8)

SMILES | IC50 [nM]
c1ccc(CNc2nc(-n3ccnc3)nc3c2SCCC3)cc1 [Example 2(3)] | 100
c1cn(-c2nc3c(c(NCc4ccc5c(c4)OCO5)n2)CSCC3)cn1 [Example 2(7)] | 24
O=C(O)C1CCN(c2nc3c(c(NCc4ccc5c(c4)OCO5)n2)CSCC3)CC1 [Example 4] | 380
[O-][S+]1CCCc2nc(-n3ccnc3)nc(NCc3ccccc3)c21 (stereo not shown) [Example 5] | 3200
O=S1(=O)CCc2nc(-n3ccnc3)nc(NCc3ccccc3)c2C1 [Example 6(1)] | 380

Now from value to compound:

IC50 [nM] | SMILES
100 | c1ccc(CNc2nc(-n3ccnc3)nc3c2CSCC3)cc1 [Example 2(5)]
125 | Cc1csc2nc(-n3ccnc3)nc(NCc3ccccc3)c12 [Example 2, 4-benzylamino-2-(1-imidazolyl)-5-methylthieno[2,3-d]pyrimidine dihydrochloric acid]
3100 | c1ccc(CNc2cc(-c3ccccc3)nc3ncnn23)cc1 [Example 7]
940 | c1ccc(CNc2cc(-c3ccccc3)nn3cnnc23)cc1 [Example 8]
